Reference: US20040242459A1 (priority 2001, published 2004)

Tests used:
[1] = tested on: PPAR-α, PPAR-γ and PPAR-δ; assay: Classification of ligands according to their PPAR activity (Table A); set-up: species or system human
[2] = biological target: T1, recombinant human PPARα (GST-PPARα) (Homo sapiens, UniProt Q07869); assay: Scintillation Proximity Assay, displacement of [3H2]Compound A from PPARα; assay type: binding
T1 construct: The full length human cDNAs for PPARδ and PPARα were subcloned into the pGEX-KT expression vector; made in house; host or cells: E. coli
T1 sequence (Q07869 1-468): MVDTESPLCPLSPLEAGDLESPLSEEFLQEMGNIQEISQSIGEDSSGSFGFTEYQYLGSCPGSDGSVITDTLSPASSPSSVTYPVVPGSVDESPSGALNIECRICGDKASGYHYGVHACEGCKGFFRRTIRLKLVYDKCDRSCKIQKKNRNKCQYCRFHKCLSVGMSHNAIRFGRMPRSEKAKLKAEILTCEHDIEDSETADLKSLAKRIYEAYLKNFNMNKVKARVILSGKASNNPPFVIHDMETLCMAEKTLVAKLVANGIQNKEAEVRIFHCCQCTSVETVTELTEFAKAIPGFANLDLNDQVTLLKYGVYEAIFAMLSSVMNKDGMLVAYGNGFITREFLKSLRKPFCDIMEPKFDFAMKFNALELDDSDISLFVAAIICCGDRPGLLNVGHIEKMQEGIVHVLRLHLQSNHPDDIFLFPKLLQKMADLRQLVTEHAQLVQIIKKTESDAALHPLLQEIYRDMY
From the text: (§1) As an approach to identifying human PPAR agonists, a Scintillation Proximity Assay was used to characterize PPAR-γ, PPAR-δ, and PPAR-α ligands.
(§2) Human PPARγ2, human PPARδ and human PPARα were expressed as GST-fusion proteins in E. coli. The full length human cDNA for PPARγ 2 was subcloned into the pGEX-2 T expression vector (Amersham Pharmacia Biotech, Inc.). The full length human cDNAs for PPARδ and PPARα were subcloned into the pGEX-KT expression vector (Amersham Pharmacia Biotech, Inc.). E. coli containing the respective plasmids were propagated, induced, and harvested by centrifugation. The resuspended pellet was broken in a French press and debris removed by centrifugation. Recombinant human PPAR receptors were purified by affinity chromatography on glutathione sepharose. After application to the column, and one wash, receptor was eluted with glutathione. Glycerol (10%) was added to stabilize the receptor and aliquots were stored at −80° C.
(§3) After incubation for ˜16 h at 15° C. with shaking, the assay plates were counted in a Packard Topcount with quench correction.

[3] = tested on: adjuvant-induced arthritis in female Lewis rats
Protocol: Nine groups of 10 rats each were injected with an emulsion containing 0.5 mg of Mycobacterium butyricum in 0.1 ml of light mineral oil, and a negative control group of 10 rats was not injected with adjuvant. Body weights, primary (injected) and contralateral (non-injected) paw volumes (determined by mercury displacement plethysmography) and lateral radiographs (obtained under Ketamine and Xylazine anesthesia) were determined before (day-1) and at various time points including 21 days following adjuvant injection. The rats were anesthetized with an intramuscular injection of 0.03-0.1 ml of a combination of Ketamine (87 mg/kg) and Xylazine (13 mg/kg) for radiographs and injection of adjuvant. Lateral to medial radiographs were made of both hind paws on days 0 and 21 for using the Faxitron (45 kVp, 30 seconds or 45 kVp, 1 second) and Kodak X-OMAT TL film, and were developed in an automatic processor. […] Specific criteria were used to establish the numerical grade of severity for each radiographic change. The maximum possible score per foot was 26. Compounds or vehicle were administered prophylactically beginning post injection of adjuvant and continuing for 21 days. The Compounds were prepared weekly, refrigerated in the dark until used, and vortex mixed immediately prior to administration. […] The liver, thymus and spleens of all rats were removed and weighed and both hind paws were removed and radiographed.
Two-factor (‘treatment’ and ‘time’) analysis of variance with repeated measures on ‘time’ were applied to the percent changes for body weight and foot volumes and to the rank-transformed radiographic total scores. A post hoc Dunnett's test was conducted to compare the effect of treatments to vehicle. A one-way analysis of variance was applied to the thymic and spleen weights followed by the Dunnett's test to compare the effect of treatments to vehicle.
Compounds or vehicle (0.5% Methocel in sterile water) were administered by oral gavage once daily for 21 days following induction of arthritis in female Lewis rats via the sub plantar injection of 0.1 ml of light mineral oil containing 0.5 mg of Mycobacterium butyricum. Control animals were not injected with adjuvant. Body weights were measured 1 day prior to (i.e. day 0) and at 14 and 21 days post induction of arthritis. The data in Table 1 represent the mean increase or decrease in body weight ±1 standard deviation for groups of 9 to 10 animals.
Compounds or vehicle (0.5% Methocel in sterile water) were administered by oral gavage once daily for 21 days following induction of arthritis in female Lewis rats via the sub plantar injection of 0.1 ml of light mineral oil containing 0.5 mg of Mycobacterium butyricum. Control animals were not injected with adjuvant.
(§4) Injected foot volumes were measured by mercury displacement plethysmography prior to induction of arthritis, and on days 4, 14 and 21 post induction of arthritis. The data represent the mean increase in foot volume ±1 standard deviation for groups of 9 to 10 animals. The extent of paw swelling in compound-treated animals was compared to the mean of that in the vehicle-treated group, and percentage inhibition was calculated for each dose level of compound.
as §4, with “Contralateral foot” for “Injected foot”, “prior to,” for “prior to induction of arthritis,”, “and at” for “and on”, “days” for “days 4,”
[…] Data represent the mean weights of organs in mg ±1 standard deviation for groups of 9 to 10 animals.
Total radiographic scores were derived from examination of lateral radiographs obtained prior to, and on day 21 post induction of arthritis.

[4] = biological target: T2, recombinant human PPARδ (GST-PPARδ) (Homo sapiens, UniProt Q03181); assay: Scintillation Proximity Assay, displacement of [3H2]Compound B from PPARδ; assay type: binding; conditions: human PPARδ binding; read-out: IC50 (μM: SPA or BND) Delta
T2 construct: The full length human cDNAs for PPARδ and PPARα were subcloned into the pGEX-KT expression vector; made in house; host or cells: E. coli
T2 sequence (Q03181 1-441): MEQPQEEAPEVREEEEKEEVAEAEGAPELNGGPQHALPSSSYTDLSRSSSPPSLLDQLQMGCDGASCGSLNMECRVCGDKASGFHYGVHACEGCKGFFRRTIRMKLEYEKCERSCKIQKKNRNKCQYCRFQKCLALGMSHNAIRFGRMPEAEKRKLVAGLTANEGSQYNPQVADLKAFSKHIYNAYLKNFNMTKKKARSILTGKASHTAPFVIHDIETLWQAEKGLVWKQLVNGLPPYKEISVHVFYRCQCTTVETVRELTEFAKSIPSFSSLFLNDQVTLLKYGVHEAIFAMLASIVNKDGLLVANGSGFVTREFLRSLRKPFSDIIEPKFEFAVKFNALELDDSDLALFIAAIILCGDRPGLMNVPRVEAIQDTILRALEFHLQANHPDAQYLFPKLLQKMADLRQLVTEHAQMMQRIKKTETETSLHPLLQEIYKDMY
From the text: as §1, §2, §3

[5] = biological target: T3, recombinant human PPARγ (GST-PPARγ) (Homo sapiens, UniProt P37231); assay: Scintillation Proximity Assay, displacement of [3H2]Compound A from PPARγ; assay type: binding; conditions: SPA, radioligand
T3 construct: The full length human cDNA for PPARγ 2 was subcloned into the pGEX-2 T expression vector; made in house; host or cells: E. coli
T3 sequence (P37231 1-505): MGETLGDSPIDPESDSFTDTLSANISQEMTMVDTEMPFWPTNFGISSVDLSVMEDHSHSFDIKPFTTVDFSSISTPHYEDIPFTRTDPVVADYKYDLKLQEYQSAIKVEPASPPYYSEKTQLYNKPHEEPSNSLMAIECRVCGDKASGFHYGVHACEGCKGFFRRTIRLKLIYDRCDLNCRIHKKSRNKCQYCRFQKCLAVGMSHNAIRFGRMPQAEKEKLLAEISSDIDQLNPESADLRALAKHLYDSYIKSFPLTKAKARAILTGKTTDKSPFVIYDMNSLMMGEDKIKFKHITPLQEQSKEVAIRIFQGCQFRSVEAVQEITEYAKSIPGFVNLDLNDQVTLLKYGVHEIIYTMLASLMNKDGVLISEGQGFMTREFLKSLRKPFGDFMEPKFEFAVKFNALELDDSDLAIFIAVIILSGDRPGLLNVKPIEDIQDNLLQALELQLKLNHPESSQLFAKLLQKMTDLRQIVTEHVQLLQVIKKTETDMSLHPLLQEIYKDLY
From the text: as §1, §2, §3

[6] = weight at necropsy, day of euthanasia 21 (Compound 1, indomethacin) or 15 (Compounds 2-6), mean ± SD

Row | Kd [5] [nM] | Kd ([2]; SPA, radioligand) [nM] | SMILES | PPAR Activity [1] | IC50 ([2]; human PPARα binding, read-out: IC50 (μM: SPA or BND) Alpha) [µM] | Change in Secondary Foot Volume Day 14-0 ([3]; contralateral paw, p.o. q.d., Compounds 1, 2, 4, 6 30 mg/kg/day, Compound 3 50, Compound 5 100, indomethacin 2, mean ± SD) [µL] | Secondary Foot Volume % Inhibition Compared to Vehicle Day 14-0 ([3]; contralateral paw, same doses p.o. q.d.) [%] | Change in Primary Foot Volume Day 4-0 ([3]; injected paw, p.o. q.d., Compounds 1, 2, 4, 6 30 mg/kg/day, Compound 3 50, Compound 5 100, indomethacin 2, mean ± SD) [µL] | Primary Foot Volume % Inhibition Compared to Vehicle Day 4-0 ([3]; injected paw, same doses p.o. q.d.) [%] | Change in Primary Foot Volume Day 14-0 ([3]; injected paw, same doses p.o. q.d., mean ± SD) [µL] | change in body weight Day 14-0 ([3]; p.o. q.d., Compounds 1, 2, 4, 6 30 mg/kg/day, Compound 3 50, Compound 5 100, indomethacin 2 mg/kg/day, mean ± SD) [grams] | prevention of swelling of primary or secondary paws ([3]; up to day 14, rats then euthanized) | Spleen [3, 6] [mg] | Thymus [3, 6] [mg] | IC50 [4] [µM]
1 |  |  | O=C(O)c1c(Sc2ccccc2)c2cc(Cl)ccc2n1Cc1ccc(Cl)cc1 [Compound 3] | Gamma Antagonist | > 10 | 869 ± 291 | 0 | 1853 ± 262 | 0 | 2606 ± 587 | −6.6 ± 6.1 | failed to prevent swelling of either the primary or secondary paws | 720.5 ± 155.1 | 152.7 ± 27.9 | > 50
2 | ~2.7 | ~10 | CCCc1c(OCCCCOc2cccc(CC(=O)O)c2)ccc2c(-c3ccccc3)noc12 [Compound A, (3-(4-(3-phenyl-7-propyl-6-benz-[4,5]-isoxazoloxy)butyloxy))phenylacetic acid, reference compound] |  |  |  |  |  |  |  |  |  |  |  | 
